This note sets out measurements from patent publication US7893299B2, “Interleukin-1 and tumor necrosis factor-αmodulators; syntheses of such modulators and methods of using such modulators” (Nereus Pharmaceuticals, Inc., priority 2005, dated 2011).

SMILES strings stand for the structures. Like-named read-outs stand apart in the source and are kept apart here.

One series deals with U266 (MM). Nature of the series: 48 hr cytotoxicity, U266. It is filed as cell-based, human. On the procedure: (§1) B16-F10 (ATCC; CRL-6475), DU 145 (ATCC; HTB-81), HEK293 (ATCC; CRL-1573), HT-29 (ATCC; HTB-38), LoVo (ATCC; CCL-229), MDA-MB-231 (ATCC; HTB-26), MIA PaCa-2 (ATCC; CRL-1420), NCI-H292 (ATCC; CRL-1848), OVCAR-3 (ATCC, HTB-161), PANC-1 (ATCC; CRL-1469), PC-3 (ATCC; CRL-1435), RPMI 8226 (ATCC; CCL-155) and U266 (ATCC; TIB-196) are maintained in appropriate culture media. The cells are cultured in an incubator at 37° C. in 5% CO2 and 95% humidified air.
For cell growth inhibition assays, B16-F10, DU 145, HEK293, HT-29, LoVo, MDA-MB-231, MIA PaCa-2, NCI-H292, OVCAR-3, PANC-1, PC-3, RPMI 8226 and U266 cells are seeded at 1.25×10^3, 5×10^3, 1.5×10^4, 5×10^3, 5×10^3, 1×10^4, 2×10^3, 4×10^3, 1×10^4, 7.5×10^3, 5×10^3, 2×10^4, 2.5×10^4 cells/well respectively in 90 μl complete media into Corning 3904 black-walled, clear-bottom tissue culture plates. 20 mM stock solutions of compounds of Formula II, IIA, and IIB are prepared in 100% DMSO, aliquoted and stored at −80° C. Compounds of Formula II, IIA, and IIB are serially diluted and added in triplicate to the test wells resulting in final concentrations ranging from of 20 μM to 0.2 pM. […]
Following 48 hours of drug exposure, 10 μl of 0.2 mg/ml resazurin (obtained from Sigma-Aldrich Chemical Co.) in Mg^2+, Ca^2+ free phosphate buffered saline is added to each well and the plates are returned to the incubator for 3-6 hours. Since living cells metabolize Resazurin, the fluorescence of the reduction product of Resazurin is measured using a Fusion microplate fluorometer (Packard Bioscience) with λex=535 nm and λem=590 nm filters. […]
The cytotoxicity assays were performed by seeding individual cell lines at appropriate density in the 96 well flat-bottomed plates and allowed to attach for 24 hours at 37° C., 5% CO2 and 95% humidified air (RPMI 8226 and U266 cells were plated in 96 well plates on the day of compound addition). […] Cell viability was assessed 48 hours later by measuring the fluorescence of the reduction product of Resazurin by a Fusion microplate fluorometer (PerkinElmer) with λex=535 nm and λem=590 nm filters. […]

Series [1] is described as follows: 48 hr cytotoxicity, B16-F10 melanoma. It is filed as cell-based, murine. The conditions noted are these: mouse, B16-F10 melanoma cells, 10% FBS, individual values. On the procedure: as §1
(§2) For cell growth inhibition assays, B16-F10, DU 145, HEK293, HT-29, LoVo, MDA-MB-231, MIA PaCa-2, NCI-H292, OVCAR-3, PANC-1, PC-3, RPMI 8226 and U266 cells are seeded at 1.25×10^3, 5×10^3, 1.5×10^4, 5×10^3, 5×10^3, 1×10^4, 2×10^3, 4×10^3, 1×10^4, 7.5×10^3, 5×10^3, 2×10^4, 2.5×10^4 cells/well respectively in 90 μl complete media into Corning 3904 black-walled, clear-bottom tissue culture plates. 20 mM stock solutions of compounds of Formula II, IIA, and IIB are prepared in 100% DMSO, aliquoted and stored at −80° C. Compounds of Formula II, IIA, and IIB are serially diluted and added in triplicate to the test wells resulting in final concentrations ranging from of 20 μM to 0.2 pM. The plates are returned to the incubator for 48 hours. The final concentration of DMSO is 0.25% in all samples.
(§3) Following 48 hours of drug exposure, 10 μl of 0.2 mg/ml resazurin (obtained from Sigma-Aldrich Chemical Co.) in Mg^2+, Ca^2+ free phosphate buffered saline is added to each well and the plates are returned to the incubator for 3-6 hours. Since living cells metabolize Resazurin, the fluorescence of the reduction product of Resazurin is measured using a Fusion microplate fluorometer (Packard Bioscience) with λex=535 nm and λem=590 nm filters. Resazurin dye in medium without cells was used to determine the background, which is subtracted from the data for all experimental wells.

In a further series the test system is B16-F10 melanoma cells. Nature of the series: 48 hr cytotoxicity, B16-F10 melanoma. The class given is cell-based, murine. The note with it: 10% FBS, individual values. As to the method:
as §1, §2, §3

The subject of series [2] is IκBα and p38 MAP kinase phosphorylation. Nature of the series: LPS- or TNF-α-induced phosphorylation of IκBα and p38 MAP kinase in RPMI 8226 cells. The class given is cell-based. The note with it: 13 μM. As to the method: One ml/well of 2×10^6/ml RPMI 8226 cells (#CCL-155C, American Type Culture Collection) were seeded in 6-well plate in LGM-3 medium and cultured for overnight at 37° C., 5% CO2 and 95% humidified air. Formula (IIB-A1) was added to RPMI 8226 cells at the final concentration of 13 μM for 1 hr. DMSO was used as a control. Cells were then either stimulated by LPS (50 ng/ml) or by TNF-α (10 ng/ml) for various length of time. At the end of each period of stimulation, cells were harvested by centrifugation and cell pellets were washed once in ice-cold 1× Dulbecco's Phosphate buffered Saline (DPBS). To prepare samples for SDS-PAGE, cells were lysed in RIPA buffer (50 mM Tris-HCl, pH7.4, 0.9% NaCl, 1% Triton X-100, 0.25% Na-deoxycholate, 1 mM EDTA, 2 mM Na3VO4 and 1× protease inhibitors cocktail) for 15 min on ice. Cell lysates were cleared by centrifugation at 14,000 rpm, 4° C. for 10 min. Protein concentrations of cell lysates were determined by BCA protein assay kit prior to SDS-PAGE. Equal amount of proteins from various cell lysates were resolved on 10% NuPage MES precast gels and transferred to nitrocellulose membranes according to the manufacturer's instructions. […]

Usually IC50 stands for the concentration needed to halve the response being measured. A low value points to greater potency in that assay. Consider `C=CC(=O)C1(C)CCCC2(C)C3=CCC(C)(C=C)C[C@@H]3CC[C@H]12` (stereo in doubt) [NPI-1387, 1-[(1S,4aS,7R)-1,4a,7-Trimethyl-7-vinyl-1,2,3,4,4a,6,7,8,8a,9,10,10a-dodecahydro-1-phenanthrenyl]-2-propen-1-one], for which the IC50 in the series on U266 (MM) came out at 7 ± 1.9 µM; in the series with U266 (MM) (Homo sapiens, U-266, 48 h), 8.7 ± 6.4 µM; in the series with B16-F10 melanoma cells it was 7.5 µM; with B16-F10 melanoma cells (Mus musculus, B16-F10, 48 h) it was 6.2 µM. In series [1], this compound yielded a cytotoxicity at 48 h of 94%. Moreover, the “% cytotox” value with B16-F10 melanoma cells stood at 92%.

Turning to `C=C[C@@]1(C)CCC=C2[C@H]1CC[C@@H]1[C@](C)(C(=O)NC3CCCCC3)CCC[C@@]21C` [Formula (IIB-A1), N-Cyclohexylamide Derivative of TTL], the “phosphorylation levels of IκBα and p38 MAP kinase induced by LPS and TNF-α in RPMI 8226 cells” value is “specifically inhibits LPS-induced phosphorylation of IκBα and p38 MAP kinase” in series [2]; “specifically decreases LPS-induced phosphorylation of IκBα and p38 MAP kinase” in series [2] (listed as formula (IIB-A1)).
